Our source for the MIC values is ChEMBL document CHEMBL1142788, “Synthesis and antibacterial activity of alkyl derivatives of the glycopeptide antibiotic A40926 and their amides” (2005).

Experiment [1] relates to Enterococcus faecalis. The experiment can be described thus: Minimum inhibitory concentration against vancomycin-sensitive Enterococcus faecalis in the presence of 30% bovine serum(n=3)(range = 1-2mg/l). The class given is functional.
In experiment [2] the test system is Staphylococcus aureus. The experiment can be described thus: Minimum inhibitory concentration against methicillin-resistant Staphylococcus aureus.
Experiment [3] concerns Enterococcus faecalis. The experiment can be described thus: Minimum inhibitory concentration against vancomycin-A Enterococcus faecalis in the presence of 30% bovine serum(n=4) (128 >128mg/L). The experiment is classed as functional.
Experiment [4] has as its system Staphylococcus epidermidis. The experiment is described as follows: Minimum inhibitory concentration against methicillin-sensitive Staphylococcus epidermidis in the presence of 30% bovine serum. The class given is functional.
In experiment [5] the test system is Staphylococcus aureus. The experiment is described as follows: Minimum inhibitory concentration against methicillin-sensitive Staphylococcus aureus.
In experiment [6] the test system is Enterococcus faecium. The experiment is described as follows: Minimum inhibitory concentration against vancomycin-sensitive Enterococcus faecium in the presence of 30% bovine serum(n=1). The experiment is classed as functional.
The subject of experiment [7] is Staphylococcus epidermidis. The experiment is described as follows: Minimum inhibitory concentration against methicillin-resistant Staphylococcus epidermidis in the presence of 30% bovine serum. The experiment is classed as functional.
The test system of experiment [8] is Staphylococcus haemolyticus. The experiment can be described thus: Minimum inhibitory concentration against Staphylococcus haemolyticus in the presence of 30% bovine serum. The class given is functional.
Experiment [9] relates to Enterococcus faecium. The experiment is described as follows: Minimum inhibitory concentration against vancomycin-A Enterococcus faecium in the presence of 30% bovine serum (n=1) (range = 64>128mg/L). The experiment is classed as functional.
In experiment [10] the test system is Enterococcus faecalis. The experiment can be described thus: Minimum inhibitory concentration against vancomycin-A Enterococcus faecalis in the presence of 30% bovine serum(n=4) (range = 0.125-16mg/L). The experiment is classed as functional.
The subject of experiment [11] is Enterococcus faecalis. The experiment can be described thus: Minimum inhibitory concentration against vancomycin-sensitive Enterococcus faecalis in the presence of 30% bovine serum(n=3)(range = 8-4). The class given is functional.
Experiment [12] concerns Enterococcus faecium. The experiment is described as follows: Minimum inhibitory concentration against vancomycin-A Enterococcus faecium in the presence of 30% bovine serum (n=1). The experiment is classed as functional.
Experiment [13] relates to Enterococcus faecalis. The experiment is described as follows: Minimum inhibitory concentration against vancomycin-A Enterococcus faecalis (n=4) (range = 0.25-8mg/L).
Experiment [14] relates to Enterococcus faecalis. The experiment can be described thus: Minimum inhibitory concentration against vancomycin-sensitive Enterococcus faecalis in the presence of 30% bovine serum (n=3). The class given is functional.
Experiment [15] deals with Enterococcus faecium. The experiment is described as follows: Minimum inhibitory concentration against vancomycin-A Enterococcus faecium in the presence of 30% bovine serum (n=1) (range = 0.125-16mg/l). The class given is functional.
Experiment [16] relates to Enterococcus faecium. The experiment can be described thus: Minimum inhibitory concentration against vancomycin-A Enterococcus faecium in the presence of 30% bovine serum (n=1) (128>128mg/L). The class given is functional.
Experiment [17] deals with Enterococcus faecalis. The experiment can be described thus: Minimum inhibitory concentration against vancomycin-sensitive Enterococcus faecalis in the presence of 30% bovine serum(n=3)(range = >=0.125-0.25mg/l). The class given is functional.
The test system of experiment [18] is Enterococcus faecalis. The experiment is described as follows: Minimum inhibitory concentration against vancomycin-A Enterococcus faecalis in the presence of 30% bovine serum (n=4). The experiment is classed as functional.

Values after ≈ are worked out from the molar mass of the structure shown. Where only a bound is given, the exact number is not on record here.

As usually defined, the MIC is the lowest concentration that inhibits growth of the organism. As to `CCCCOc1ccc(CN(C)[C@H]2C(=O)N[C@@H]3Cc4ccc(cc4)Oc4cc5cc(c4O[C@@H]4OC(C(=O)O)C(O)[C@H](O)C4N)Oc4ccc(cc4Cl)[C@@H](O)C4NC(=O)[C@H](NC(=O)[C@@H]5NC(=O)[C@@H](NC3=O)c3cc(cc(O)c3Cl)Oc3cc2ccc3O)c2ccc(O)c(c2)-c2c(O[C@H]3O[C@H](CO)[C@@H](O)[C@H](O)[C@@H]3O)cc(O)cc2[C@@H](C(=O)O)NC4=O)cc1` (some centres undefined), the MIC worked out at 2 µg/mL in experiment [1]; 2 µg/mL (≈ 1.17 µM) in [2]; 128 µg/mL in experiment [3]; 32 µg/mL in experiment [4]; 4 µg/mL (≈ 2.34 µM) in experiment [5]; 2 µg/mL in experiment [6]. In addition, the minimum inhibitory concentration (MIC) is 128 µg/mL in experiment [7], > 128 µg/mL in [8] and > 128 µg/mL in experiment [9].
In the case of `CCCCC(CC)Oc1ccc(CNC2[C@H](Oc3c4cc5cc3Oc3ccc(cc3Cl)[C@@H](O)C3NC(=O)[C@H](NC(=O)[C@@H]5NC(=O)[C@H]5NC(=O)[C@@H](Cc6ccc(cc6)O4)NC(=O)[C@H](NC)c4ccc(O)c(c4)Oc4cc(O)c(Cl)c5c4)c4ccc(O)c(c4)-c4c(O[C@H]5O[C@H](CO)[C@@H](O)[C@H](O)[C@@H]5O)cc(O)cc4[C@@H](C(=O)NCCCN(C)C)NC3=O)OC(C(=O)NCCCN(C)C)C(O)[C@@H]2O)cc1` (some centres undefined), the MIC was < 16 µg/mL in [10]; < 0.125 µg/mL in experiment [11]; < 0.125 µg/mL in [4]; < 0.125 µg/mL in experiment [5]; < 0.125 µg/mL in [6]; 4 µg/mL in experiment [8]. The MIC in experiment [12] was 16 µg/mL.
Turning to `CCCCOc1ccc(CNC2[C@H](Oc3c4cc5cc3Oc3ccc(cc3Cl)[C@@H](O)C3NC(=O)[C@H](NC(=O)[C@@H]5NC(=O)[C@H]5NC(=O)[C@@H](Cc6ccc(cc6)O4)NC(=O)[C@H](N(C)Cc4ccc(OCCCC)cc4)c4ccc(O)c(c4)Oc4cc(O)c(Cl)c5c4)c4ccc(O)c(c4)-c4c(O[C@H]5O[C@H](CO)[C@@H](O)[C@H](O)[C@@H]5O)cc(O)cc4[C@@H](C(=O)NCCCN(C)C)NC3=O)OC(C(=O)NCCCN(C)C)C(O)[C@@H]2O)cc1` (some centres undefined), the MIC is 8 µg/mL (≈ 3.92 µM) in experiment [13]; 1 µg/mL (≈ 0.489 µM) in [2]; < 0.125 µg/mL in experiment [4]; 0.25 µg/mL (≈ 0.122 µM) in experiment [5]; 0.125 µg/mL in experiment [6]; 0.5 µg/mL in experiment [7]. Further, the minimal inhibitory concentration (MIC) was < 0.125 µg/mL in experiment [14], > 16 µg/mL in [15] and 1 µg/mL in [8].
Consider `CCCCCCC(CCCC)CNC1[C@H](Oc2c3cc4cc2Oc2ccc(cc2Cl)[C@@H](O)C2NC(=O)[C@H](NC(=O)[C@@H]4NC(=O)[C@H]4NC(=O)[C@@H](Cc5ccc(cc5)O3)NC(=O)[C@H](NC)c3ccc(O)c(c3)Oc3cc(O)c(Cl)c4c3)c3ccc(O)c(c3)-c3c(O[C@H]4O[C@H](CO)[C@@H](O)[C@H](O)[C@@H]4O)cc(O)cc3[C@@H](C(=O)O)NC2=O)OC(C(=O)O)C(O)[C@@H]1O` (some centres undefined), for which the MIC in experiment [2] was 2 µg/mL (≈ 1.16 µM); in [16], > 128 µg/mL; in [17], ≤ 0.125 µg/mL; in [4], 2 µg/mL; in experiment [5], 4 µg/mL (≈ 2.33 µM); in experiment [6] it was 1 µg/mL. Besides, the minimal inhibitory concentration (MIC) is 32 µg/mL in experiment [7], > 128 µg/mL in experiment [18] and 32 µg/mL in [8].
